In ChEMBL document CHEMBL1157539, “Thousands of chemical starting points for antimalarial lead identification” (Nature, 2010):

Test system: Plasmodium falciparum
Test: GSK_TCMDC: Inhibition of Plasmodium falciparum 3D7 in whole erythrocytes, using parasite LDH activity as an index of growth.
Format: functional, organism-based
Conditions: Plasmodium falciparum, 3D7

Compound | XC50
CC1CCN(Cc2ccc(NC(=O)c3cc4ccc5cccnc5c4[nH]3)cc2)CC1 | 779 nM
CN(C)S(=O)(=O)c1ccc(C(=O)N(c2nc(-c3ccccc3)cs2)C2CCCCC2)cc1 | 760 nM
O=C(CC1CCCC1)Nc1ccc2c(c1)CCC2 | 868 nM
Nc1c(Cl)cc(C(O)CNCCCCCCOCCc2ccc(O)cc2)cc1Cl (centres undefined) | 725 nM
CN1CCCN(Cc2ccc(-c3cccc(NC(=O)c4cccc(C#N)c4)c3)cc2)CC1 | 651 nM
Oc1ccc(CCCNc2nc(NCc3cccc4ccccc34)nc(N3CCNCC3)n2)cc1 | 808 nM
CCN(CC)S(=O)(=O)c1ccc(C=CC(=O)Nc2cc(Cl)ccc2N2CCOCC2)cc1 | 920 nM
CS(=O)(=O)CCNc1nccc(N2CCc3ncnc(Nc4ccc(OCc5cccc(F)c5)c(Cl)c4)c3C2)n1 | 132 nM
CN1CCN(CCCN(Cc2cccc(-c3ccc(CNCc4ccc5c(c4)OCO5)cc3)c2)C(=O)CCC2CCCC2)CC1 | 1000 nM
CCNc1cc(C(=O)N[C@@H](Cc2ccccc2)[C@H](O)CNCCC(C)c2ccccc2)cc(N2CCCC2=O)c1 (some centres undefined) | 511 nM
CC[C@H]1CN2CC[C@@H]1C[C@H]2[C@H](O)c1cc(N2CCC(C)CC2)nc2ccc(OC)cc12 | 172 nM
CCOc1cc(Br)c(C(C)NC(=O)c2ccccc2)cc1OCC (centres undefined) | 861 nM
CCOC(=O)CC[C@@H](NC(=O)c1ccc(NCc2ccc3ccc4nc(C)[nH]c(=O)c4c3c2)cc1F)C(=O)N[C@@H](Cc1c[nH]c2ccccc12)C(=O)OCC | 1030 nM
CN(C)C(CNC(=O)c1cc(-c2ccncc2)c(-c2ccc(NC(=O)Nc3cccc(Cl)c3)cc2)o1)c1ccccc1 (centres undefined) | 183 nM
O=C(Nc1ccc(Br)cc1)Nc1ccc(Cn2ncc(N3CCCNCC3)c(Cl)c2=O)cc1 | 1140 nM
NCCc1cccc(-c2cnc3[nH]cc(-c4ccc(C(=O)O)cc4)c3c2)c1 | 397 nM
CN(C)CCN(C)Cc1ccc(-c2ccc3c(Nc4ccc(Oc5ccccn5)cc4)ccnc3c2)o1 | 424 nM
O=S1(=O)NC2(CCN(CCc3ccc(Cl)cc3)CC2)Nc2cc(F)cc(F)c21 | 1460 nM
COc1ccc(-c2ccc(CNC(=O)c3ccc(C#N)cc3)c(F)c2)cc1CN1CCCN(C)CC1 | 1140 nM
Cc1noc(-c2ccc(N3CCC(C(=O)N4CCN(C(C)C)CC4)CC3)cc2)n1 | 1070 nM
CC(C)(C)c1ccc2[nH]c(-c3ccc(/C=C/C(=O)NCc4cccc(C(F)(F)F)c4)cc3)nc2c1 | 986 nM
CC(C)N1CCC(N(Cc2ccc(-c3ccc(C(F)(F)F)cc3)cc2)C(=O)Cn2c(SCc3cccc(F)c3F)cc(=O)c3c2CCC3)CC1 | 1160 nM
COc1ccc2cc(C(=O)Nc3ccc4c(c3)CCN(C3CCC3)CC4)ccc2c1 | 838 nM
CCCC(C)Nc1nc(C)cc(N[C@@H](Cc2ccccc2)C(=O)NCc2cccc(F)c2)n1 (some centres undefined) | 882 nM

Compound | XC50
CCC(=O)Nc1ccc(Nc2nc(C)cc(N3CCCC3)n2)cc1 | 1320 nM
CCOC(=O)c1c(C)n(-c2ccccc2)c2ccc(OC(=O)COc3ccc(Cl)cc3Cl)cc12 | 429 nM
CN1CCN(Cc2cc3cc(NC(=O)/C=C/c4cccc(Cl)c4)ccc3s2)CC1 | 273 nM
CC1CN(c2ccnc3ccc(Sc4ccc(Oc5ccccc5)cc4)cc23)CC(C)N1 (centres undefined) | 785 nM
COc1cccc(OC)c1C(=O)Nc1cccc(-c2nn3ccccc3c2-c2ccnc(Nc3cccc(F)c3)n2)c1 | 749 nM
CC(C)OCCCNC(=O)c1nc(-c2cccc(C(F)(F)F)c2)sc1C(C)C | 1160 nM
O=C(Nc1ccc2c(c1)CCC2)c1cccc(N2CCN(c3ccncc3)CC2)c1 | 971 nM
COc1c(O)cc2oc(-c3ccc(O)cc3)cc(=O)c2c1O [HISPIDULIN] | 771 nM
Cc1cc(O)cc2c(C3CCN(CC4CCC(NC(=O)/C=C/c5ccccc5Cl)CC4)CC3)c[nH]c12 (centres undefined) | 900 nM
CCOc1ccccc1C(=O)Nc1cccc(-c2nc3ncccn3c2C)c1 | 846 nM
N#Cc1c(N2CCN(c3ccc(F)cc3)CC2)nc(N)c2c(N)nc3c(c12)CC(=O)N3C1CC1 | 837 nM
Cc1cc(C2NC(=O)c3ccccc3N2)c(C)n1-c1ccc2c(c1)OCO2 (centres undefined) | 731 nM
CN1CCC(N2CCN(c3ccc4c(=O)nc(CCc5cccc(F)c5F)n(CC(=O)N(C)Cc5ccc(-c6ccc(C(F)(F)F)cc6)cc5)c4n3)CC2)CC1 | 717 nM
N#Cc1cccc(NC(=O)NC2CCN(CCCCCNC(=O)C3CC3c3ccc(Cl)c(Cl)c3)CC2)c1 (centres undefined) | 785 nM
O=C(Nc1ccc(O)c(-c2nc3ccccc3[nH]2)c1)c1ccc([N+](=O)[O-])cc1 | 318 nM
c1ccc(-c2cccnn2)cc1 | 910 nM
O=C(NCc1ccccn1)C(c1cc2ccccc2o1)N1CCN(C(c2ccccc2)c2ccccc2)CC1 (centres undefined) | 856 nM
CC(C)CCN1CCC(Oc2ccc(NC(=O)c3ccco3)cc2Cl)CC1 | 676 nM
C=C[C@H]1CN2CC[C@H]1C[C@H]2[C@H](O)c1ccnc2ccccc12 [CINCHONIDINE] | 172 nM
Cc1ccc(/C=C/C(=O)NC2CCC(N3CCC(c4ccccc4C)CC3)CC2)cc1F (centres undefined) | 1040 nM
Cc1cccc2nc(-c3ccc(-c4cccc(NC(=O)c5ccncc5)c4)cc3)[nH]c12 | 839 nM
CCC1CN2CCc3c([nH]c4ccccc34)C2CC1CC1=NCCc2c1[nH]c1ccc(OC)cc21 (centres undefined) | 641 nM
FC(F)(F)COc1ccc2ccccc2c1CNCCCCCCNCc1c(OCC(F)(F)F)ccc2ccccc12 | 352 nM
O=C(Nc1ccccc1-c1ccccc1)C1CCCN1C(=O)Nc1ccc(Cl)cc1 (centres undefined) | 793 nM

Compound | XC50
Cn1c(=N)n(CC(=O)N2CCc3ccc(Cl)cc3C2Cc2ccc(Cl)c(Cl)c2)c2ccccc21 (centres undefined) | 869 nM
COc1ccc2nccc([C@@H](O)CN3CCC(NC(=O)/C=C/c4ccc(F)c5ccccc45)CC3)c2c1 | 184 nM
Cc1cc(C(=O)OCC(=O)Nc2c(C)n(C)n(-c3ccccc3)c2=O)c(C)n1-c1ccc(F)cc1 | 53.9 nM
O=C(NC1CCCCN(Cc2ccccc2O)C1)c1cccc(Cl)c1 (centres undefined) | 1060 nM
COc1ccc(CCNCCCCCNCCCc2ccc(Cl)cc2)cc1OC | 808 nM
CC(C)(C)c1ccc(S(=O)(=O)Nc2ccccc2Cn2nc(N3CCNCC3)ccc2=O)cc1 | 846 nM
CCc1c[nH]c2c(N3CCCC3=O)cc(C(=O)N[C@@H](Cc3ccccc3)[C@H](O)CNC(C)(C)CCCC(C)C)cc12 | 511 nM
COc1cc2c(cc1CCNCCCCNCCc1cc3c(cc1OC)CCCC3)CCCC2 | 996 nM
O=C(Nc1cccc(-c2ccc(-c3nc4ccccc4[nH]3)s2)c1)c1ccncc1 | 778 nM
C(=NNc1nc2ccccc2[nH]1)c1ccccc1OCc1ccccc1 | 256 nM
Cc1ccc2c(c1)c(C1CCN(C(=O)c3ccc([N+](=O)[O-])o3)CC1)cn2C | 746 nM
O=C(Nc1ccc(-c2cccc(CN3CCC(O)CC3)c2)cc1)c1cccc(Cl)c1 | 826 nM
Cc1ccc(C(=O)Nc2cc(C(F)(F)F)cc(C(F)(F)F)c2)cc1[N+](=O)[O-] | 927 nM
Cc1cc(F)ccc1[C@H]1CNCCN1C(=O)N(C)C(C)(C)c1cc(C(F)(F)F)cc(C(F)(F)F)c1 | 594 nM
COCCn1ccc2c3c(N)nc(N)nc3ccc21 | 214 nM
CCOC(C(=O)OCCN(C(C)C)C(C)C)(c1ccccc1)c1ccccc1 | 874 nM
CC(C)(CNCc1cccc(Oc2cccc(C(F)(F)F)c2)c1)c1nc(-c2ccnc(N)n2)c(-c2ccc(Cl)c(O)c2)[nH]1 | 193 nM
Cc1cc(O)nc(NC(=N)NOCc2ccccc2)n1 | 423 nM
O=C(NCCc1ccc(Cl)c(Cl)c1)c1ccc(CNC(=O)c2ccc(O)c(-c3ccc(Cl)c(Cl)c3)c2)cc1 | 812 nM
Cc1ccc([N+](=O)[O-])cc1NC(=O)N(CC(O)c1ccccc1)C1CCCCC1 (centres undefined) | 730 nM
O=C(Nc1ccc(-c2ccc(-c3nc4cc(C(F)(F)F)ccc4[nH]3)s2)cc1)c1ccoc1 | 854 nM
COc1ccc(C(=O)c2ccc3[nH]cc(C4=CCN(C)CC4)c3c2)cc1 | 1050 nM
COCCNCC(O)Cn1c2ccc(Cl)cc2c2cc(Cl)ccc21 (centres undefined) | 52 nM
Cc1ccc(-c2ccc(Cl)cc2Oc2cnc(N)nc2N)o1 | 1080 nM

Compound | XC50
CN(C)c1ccc(-c2nc3cc(N)ccc3[nH]2)cc1 | 239 nM
O=C(/C=C/c1ccc(Cl)c(Cl)c1)N1CCCC(CCCN2CCC(c3c[nH]c4ccccc34)CC2)C1 (centres undefined) | 1090 nM
CCCN1CCN(Cc2ccc(C(=O)Nc3ccc(Cl)cc3)cc2)CC1 | 48.5 nM
CCc1c(CCNCCCCCCNCCc2ccc(Br)cc2)ccc(O)c1O | 903 nM
CCCCCC(=O)N1CCOC(CCN2CCc3c(c4ccccc4n3C)C2)(c2ccc(Cl)c(Cl)c2)C1 (centres undefined) | 982 nM
O=C(CSc1nccn1Cc1ccco1)Nc1cc(C(F)(F)F)ccc1Cl | 822 nM
Cc1ccc2cc(NC(=O)CCCCCCCON3C(N)=NC(N)=NC34CCCCC4)ccc2n1 | 92.5 nM
O=C(Nc1ccc(OC2CCN(Cc3ccc(F)cc3)CC2)c(Cl)c1)c1ccco1 | 303 nM
Cc1cc2nc(N=C3NC4(c5ccccn5)NC(=Nc5nc6cc(C)c(C)cc6[nH]5)NC4(c4ccccn4)N3)[nH]c2cc1C (centres undefined) | 683 nM
CCCCCCP(=O)(COc1ccc(CCN(CC(O)COc2cccc3[nH]c(C(N)=O)cc23)CC(O)COc2cccc3[nH]c(C(N)=O)cc23)cc1)OCCCC (centres undefined) | 724 nM
FC(F)(F)c1ccc2[nH]c(-c3ccc(-c4ccc(CN5CCN(c6cnccn6)CC5)cc4)s3)nc2c1 | 652 nM
O=C(Nc1cccc(CN2CCCN(Cc3ccc(O)cc3)CC2)c1)c1ccc(Br)cc1 | 800 nM
CS(=O)(=O)c1cccc(-c2cnc3[nH]cc(-c4ccc(CCC(=O)O)cc4)c3c2)c1 | 634 nM
FC(F)(F)c1ccc2[nH]c(-c3ccc(-c4cccc(CNCc5cnn(-c6ccccc6)n5)c4)s3)nc2c1 | 329 nM
CSCCCN1CCC(O)(c2ccc3oc(C(=O)Nc4ccc5sc(C)nc5c4)cc3c2)CC1 | 1070 nM
O=C(N[C@@H](Cc1ccccc1)[C@H](O)CNC1CCc2ccccc2C1)c1cc(C2CCCC2)cc(N2CCCC2=O)c1 (some centres undefined) | 161 nM
O=C(NCCc1ccccc1)N(Cc1ccccc1-c1cccc(CNCCc2ccccc2)c1)C1CCN(Cc2ccccc2)CC1 | 625 nM
COc1ccc(C(=O)Nc2ccc(-c3nc4cc(C)ccc4[nH]3)cc2)cc1OC | 761 nM
CC(=O)Nc1cccc(C(=O)Nc2cccc(-c3ccc(-c4nc5cccc(C)c5[nH]4)cc3)c2)c1 | 908 nM
Oc1cc(-c2nc(C3(CNCc4ccc(Cl)cc4)CCCCC3)[nH]c2-c2ccncc2)ccc1Cl | 125 nM
Fc1ccc2c(NN=CC=Cc3ccccc3)ccnc2c1 | 779 nM
Cc1cccc(C(=O)Nc2ccnc(N(C)CCCN(C)Cc3cccc(O)c3)c2)c1 | 967 nM
